The values below come from US12441703B2, “Carboxamides as modulators of sodium channels” (VERTEX PHARMACEUTICALS INCORPORATED, priority 2019, dated 2025).

The target in this experiment is human NaV 1.8 (Homo sapiens, UniProt Q9Y5Y9). Description: E-VIPR assay for detecting and measuring NaV inhibition properties. It counts as cell-based. The settings on record: E-VIPR assay conducted in the presence of human serum; HEK cells expressing truncated human NaV 1.8; read-out: IC50. Summed up: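 Membrane-potential (coumarin/oxonol) readout after 10 s of 10 Hz biphasic electrical stimulation on E-VIPR. Compounds: 11-point 3-fold dilutions, […], 0.625% DMSO, 30 min at room temperature, human serum optional. Cells: HEK expressing truncated human NaV1.8 co-transduced with KIR2.1.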
Chain of human NaV 1.8 (Q9Y5Y9 whole entry, looked up, the tested form may be a part): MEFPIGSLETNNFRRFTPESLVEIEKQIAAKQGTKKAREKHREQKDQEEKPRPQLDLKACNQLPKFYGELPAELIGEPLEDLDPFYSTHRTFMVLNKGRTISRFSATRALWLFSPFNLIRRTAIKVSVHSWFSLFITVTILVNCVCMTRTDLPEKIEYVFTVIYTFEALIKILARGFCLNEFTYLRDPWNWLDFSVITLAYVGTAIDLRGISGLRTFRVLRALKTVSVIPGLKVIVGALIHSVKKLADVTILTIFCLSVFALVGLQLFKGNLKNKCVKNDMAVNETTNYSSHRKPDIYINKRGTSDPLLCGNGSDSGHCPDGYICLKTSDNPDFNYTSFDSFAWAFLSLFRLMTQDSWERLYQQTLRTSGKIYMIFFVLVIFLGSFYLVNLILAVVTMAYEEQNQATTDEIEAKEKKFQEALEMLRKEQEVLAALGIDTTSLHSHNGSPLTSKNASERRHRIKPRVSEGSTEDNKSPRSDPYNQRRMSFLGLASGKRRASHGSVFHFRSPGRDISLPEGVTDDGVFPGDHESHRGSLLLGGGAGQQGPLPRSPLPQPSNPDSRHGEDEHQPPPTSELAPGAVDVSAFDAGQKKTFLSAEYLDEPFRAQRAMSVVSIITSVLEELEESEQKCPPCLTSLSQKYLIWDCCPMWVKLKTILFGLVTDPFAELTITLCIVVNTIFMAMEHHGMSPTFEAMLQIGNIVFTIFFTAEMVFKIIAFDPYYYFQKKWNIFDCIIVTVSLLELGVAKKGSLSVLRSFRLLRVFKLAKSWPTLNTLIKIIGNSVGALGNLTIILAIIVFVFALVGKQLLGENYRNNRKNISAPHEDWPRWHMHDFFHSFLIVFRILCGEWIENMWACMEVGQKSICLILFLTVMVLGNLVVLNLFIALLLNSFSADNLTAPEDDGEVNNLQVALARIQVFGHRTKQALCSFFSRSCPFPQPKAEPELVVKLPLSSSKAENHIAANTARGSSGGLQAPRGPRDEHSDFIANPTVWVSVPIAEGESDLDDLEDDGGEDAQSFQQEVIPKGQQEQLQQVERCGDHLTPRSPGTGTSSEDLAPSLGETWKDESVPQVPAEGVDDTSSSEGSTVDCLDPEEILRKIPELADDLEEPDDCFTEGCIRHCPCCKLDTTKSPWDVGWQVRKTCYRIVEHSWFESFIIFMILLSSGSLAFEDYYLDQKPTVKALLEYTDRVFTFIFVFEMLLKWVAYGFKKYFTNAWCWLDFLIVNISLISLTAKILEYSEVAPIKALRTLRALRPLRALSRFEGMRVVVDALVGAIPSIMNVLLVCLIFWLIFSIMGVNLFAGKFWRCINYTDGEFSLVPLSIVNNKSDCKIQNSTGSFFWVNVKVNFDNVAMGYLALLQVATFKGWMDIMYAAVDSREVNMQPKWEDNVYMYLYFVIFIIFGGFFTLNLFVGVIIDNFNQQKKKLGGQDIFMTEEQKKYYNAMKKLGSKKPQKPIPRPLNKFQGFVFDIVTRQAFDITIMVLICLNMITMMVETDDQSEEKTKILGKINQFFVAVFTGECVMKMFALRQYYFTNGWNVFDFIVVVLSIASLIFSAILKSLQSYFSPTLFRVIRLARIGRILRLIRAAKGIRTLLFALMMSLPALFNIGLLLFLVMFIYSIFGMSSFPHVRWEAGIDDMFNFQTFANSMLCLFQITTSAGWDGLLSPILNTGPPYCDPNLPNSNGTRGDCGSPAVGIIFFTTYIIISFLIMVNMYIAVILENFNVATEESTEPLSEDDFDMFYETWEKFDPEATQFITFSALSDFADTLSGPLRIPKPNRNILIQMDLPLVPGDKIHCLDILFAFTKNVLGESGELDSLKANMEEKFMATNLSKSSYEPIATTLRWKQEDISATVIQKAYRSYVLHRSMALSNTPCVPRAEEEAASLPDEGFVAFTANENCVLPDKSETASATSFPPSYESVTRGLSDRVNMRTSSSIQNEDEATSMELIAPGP
The IC50 is the midpoint of a concentration-inhibition curve. For the compound `[2H]C([2H])([2H])Oc1cc(OC(F)(F)F)ccc1Oc1cc(-c2cccc(C(F)(F)F)c2)cc(F)c1C(=O)Nc1ccnc(C(N)=O)c1` [Compound 94, 4-[[2-fluoro-6-[2-(trideuteriomethoxy)-4-(trifluoromethoxy)phenoxy]-4-[3-(trifluoromethyl)phenyl]benzoyl]amino]pyridine-2-carboxamide], the IC50 stood at 39 nM. The figure for `[2H]C([2H])([2H])Oc1cc(OC(F)(F)F)ccc1Oc1cc(-c2ccccc2C(F)(F)F)cc(F)c1C(=O)Nc1ccnc(C(N)=O)c1` [Compound 95, 4-[[2-fluoro-6-[2-(trideuteriomethoxy)-4-(trifluoromethoxy)phenoxy]-4-[2-(trifluoromethyl)phenyl]benzoyl]amino]pyridine-2-carboxamide] is 140 nM; for `[2H]C([2H])([2H])Oc1cc(OC(F)(F)F)ccc1Oc1cc(C2CCCC2)cc(F)c1C(=O)Nc1ccnc(C(N)=O)c1` [Compound 96, 4-[[4-Cyclopentyl-2-Fluoro-6-[2-(Trideuteriomethoxy)-4-(Trifluoromethoxy)Phenoxy]Benzoyl]Amino]Pyridine-2-Carboxamide] it is 13 nM. The figure for `[2H]C([2H])([2H])Oc1cc(OC(F)(F)F)ccc1Oc1cc(C2CCCCC2)cc(F)c1C(=O)Nc1ccnc(C(N)=O)c1` [Compound 97] is 14 nM. The figure for `[2H]C([2H])([2H])Oc1cc(OC(F)(F)F)ccc1Oc1cc(C2CCC(F)(F)CC2)cc(F)c1C(=O)Nc1ccnc(C(N)=O)c1` [Compound 98] is 23 nM. Turning to `[2H]C([2H])([2H])Oc1cc(OC(F)(F)F)ccc1Oc1cc(C(F)(F)F)c(F)cc1C(=O)Nc1ccnc(C(N)=O)c1` [Compound 99, 4-[[5-fluoro-2-[2-(trideuteriomethoxy)-4-(trifluoromethoxy)phenoxy]-4-(trifluoromethyl)benzoyl]amino]pyridine-2-carboxamide], the IC50 amounted to 380 nM. The figure for `[2H]C([2H])([2H])Oc1cc(OC(F)(F)F)ccc1Oc1cc(C(F)(F)F)c(F)cc1C(=O)Nc1ccc(C(N)=O)nc1` [Compound 100, 5-[[5-fluoro-2-[2-(trideuteriomethoxy)-4-(trifluoromethoxy)phenoxy]-4-(trifluoromethyl)benzoyl]amino]pyridine-2-carboxamide] is 630 nM. The figure for `Cc1cc(F)ccc1Oc1ccc(C(F)(F)F)c(F)c1C(=O)Nc1ccc(C(N)=O)nc1` [Compound 101, 5-[[2-fluoro-6-(4-fluoro-2-methyl-phenoxy)-3-(trifluoromethyl)benzoyl]amino]pyridine-2-carboxamide] is 525 nM; for `Cc1cc(F)ccc1Oc1ccc(C(F)(F)F)c(F)c1C(=O)Nc1ccnc(C(N)=O)c1` [Compound 102, 4-[[2-fluoro-6-(4-fluoro-2-methyl-phenoxy)-3-(trifluoromethyl)benzoyl]amino]pyridine-2-carboxamide] it is 36 nM; for `COc1cc(F)ccc1Oc1ccc(C(F)(F)F)c(F)c1C(=O)Nc1ccnc(C(N)=O)c1` [Compound 103, 4-[[2-fluoro-6-(4-fluoro-2-methoxy-phenoxy)-3-(trifluoromethyl)benzoyl]amino]pyridine-2-carboxamide] it is 13 nM.

On to `COc1cc(F)ccc1Oc1ccc(C(F)(F)F)c(F)c1C(=O)Nc1ccc(C(N)=O)nc1` [Compound 104, 5-[[2-fluoro-6-(4-fluoro-2-methoxy-phenoxy)-3-(trifluoromethyl)benzoyl]amino]pyridine-2-carboxamide], for which the IC50 is 380 nM. The figure for `[2H]C([2H])([2H])Oc1cc(OC(F)(F)F)ccc1Oc1ccc(C(F)(F)F)cc1C(=O)Nc1ccnc(C(N)=O)c1` [Compound 105, 4-[[2-[2-(trideuteriomethoxy)-4-(trifluoromethoxy)phenoxy]-5-(trifluoromethyl)benzoyl]amino]pyridine-2-carboxamide] is 73 nM. The figure for `[2H]C([2H])([2H])Oc1cc(OC(F)(F)F)ccc1Oc1ccc(C(F)(F)F)cc1C(=O)Nc1ccc(C(N)=O)nc1` [Compound 106] is 1400 nM. The figure for `NC(=O)c1cc(NC(=O)c2ccc(C(F)(F)F)cc2Oc2ccc(F)c(Cl)c2)ccn1` [Compound 107, 4-[[2-(3-chloro-4-fluoro-phenoxy)-4-(trifluoromethyl)benzoyl]amino]pyridine-2-carboxamide] is 2380 nM. Take `CC(C)Oc1ccc(Oc2cc(C(F)(F)F)ccc2C(=O)Nc2ccnc(C(N)=O)c2)cc1Cl` [Compound 108, 4-[[2-(3-chloro-4-isopropoxy-phenoxy)-4-(trifluoromethyl)benzoyl]amino]pyridine-2-carboxamide]: the IC50 is above 3000 nM. The figure for `NC(=O)c1cc(NC(=O)c2ccc(C(F)(F)F)cc2Oc2ccc(OC3CCCCC3)cc2)ccn1` [Compound 109, 4-[[2-[4-(cyclohexoxy)phenoxy]-4-(trifluoromethyl)benzoyl]amino]pyridine-2-carboxamide] is above 3000 nM. The figure for `NC(=O)c1cc(NC(=O)c2ccc(C(F)(F)F)cc2Oc2cccc(C3CCCCC3)c2)ccn1` [Compound 110, 4-[[2-(3-cyclohexylphenoxy)-4-(trifluoromethyl)benzoyl]amino]pyridine-2-carboxamide] is above 3000 nM; for `NC(=O)c1cc(NC(=O)c2ccc(C(F)(F)F)cc2Oc2ccc(F)cc2F)ccn1` [Compound 111, 4-[[2-(2,4-difluorophenoxy)-4-(trifluoromethyl)benzoyl]amino]pyridine-2-carboxamide] it is above 3000 nM; for `CC(F)(F)c1cc(F)ccc1Oc1cc(C(F)(F)F)ccc1C(=O)Nc1ccnc(C(N)=O)c1` [Compound 112, 4-[[2-[2-(1,1-difluoroethyl)-4-fluoro-phenoxy]-4-(trifluoromethyl)benzoyl]amino]pyridine-2-carboxamide] it is above 3000 nM. The figure for `Cc1cc(F)ccc1Oc1cc(C(F)(F)F)ccc1C(=O)Nc1ccnc(C(N)=O)c1` [Compound 113, 4-[[2-(4-fluoro-2-methyl-phenoxy)-4-(trifluoromethyl)benzoyl]amino]pyridine-2-carboxamide] is above 3000 nM; for `[2H]C([2H])([2H])Oc1cc(OC(F)(F)F)ccc1Oc1ccc2c(c1C(=O)Nc1ccnc(C(N)=O)c1)OC(F)(F)O2` [Compound 114, 4-[[2,2-difluoro-5-[2-(trideuteriomethoxy)-4-(trifluoromethoxy)phenoxy]-1,3-benzodioxole-4-carbonyl]amino]pyridine-2-carboxamide] it is 510 nM; for `[2H]C([2H])([2H])Oc1cc(OC(F)(F)F)ccc1Oc1ccc2c(c1C(=O)Nc1ccc(C(N)=O)nc1)OC(F)(F)O2` [Compound 115] it is above 3000 nM.

On to `[2H]C([2H])([2H])Oc1cc(OC(F)(F)F)ccc1Oc1ccc(C(F)(F)F)c(C)c1C(=O)Nc1ccc(C(N)=O)nc1` [Compound 116, 5-[[2-methyl-6-[2-(trideuteriomethoxy)-4-(trifluoromethoxy)phenoxy]-3-(trifluoromethyl)benzoyl]amino]pyridine-2-carboxamide], for which the IC50 came out at 25 nM. The figure for `[2H]C([2H])([2H])Oc1cc(OC(F)(F)F)ccc1Oc1ccc(C(F)(F)F)c(C)c1C(=O)Nc1ccnc(C(N)=O)c1` [Compound 117] is 2 nM; for `COc1c(Oc2ccc(C(F)(F)F)c(F)c2C(=O)Nc2ccc(C(N)=O)nc2)ccc(F)c1F` [Compound 118, 5-[[6-(3,4-difluoro-2-methoxy-phenoxy)-2-fluoro-3-(trifluoromethyl)benzoyl]amino]pyridine-2-carboxamide] it is 695 nM.
